Measured values as given in patent US10752634B2, “Crystalline forms of a brutons tyrosine kinase inhibitor” (Pharmacyclics LLC, priority 2012, dated 2020).
In brackets after ≈: the same amount, converted by molar mass. Where two headings read alike, the source gives them in different places.

Columns and labels:
OCI-Ly10 = assay: Growth inhibition of OCI-Ly10 (ABC-DLBCL) cells; type: cell-based; conditions: Homo sapiens
Source text: See U.S. Pat. No. 7,711,492 and Staudt et al., Nature, Vol. 463, Jan. 7, 2010, pp. 88-92, the contents of which are incorporated by reference in their entirety.

[1] = Thermodynamic aqueous solubility; type: physicochemical
Description: The suspension was equilibrated at 25° C. for 24 hours then the pH was measured. The suspension was then filtered through a glass fibre C filter. The filtrate was then diluted by an appropriate factor e.g. 101. Quantitation was by HPLC with reference to a standard solution of approximately 0.25 mg/ml in DMSO. Different volumes of the standard, diluted and undiluted sample solutions were injected. The solubility was calculated using the peak areas determined by integration of the peak found at the same retention time as the principal peak in the standard injection.
Analysis was performed on an Agilent HP1100 series system equipped with a diode array detector and using ChemStation software vB.02.01-SR1.

[2] = for changes in the XRPD after GVS analysis: after GVS isotherm; for mass change: between 0-90% RH
Description: Sorption isotherms were obtained using a SMS DVS Intrinsic moisture sorption analyser, controlled by DVS Intrinsic Control software v1.0.0.30. The sample temperature was maintained at 25° C. by the instrument controls. […] The weight change, (mass relaxation) of the sample as a function of % RH was constantly monitored by the microbalance (accuracy ±0.005 mg). Typically 5-20 mg of sample was placed in a tared mesh stainless steel basket under ambient conditions. The sample was loaded and unloaded at 40% RH and 25° C. (typical room conditions). A moisture sorption isotherm was performed as outlined below (2 scans giving 1 complete cycle). The standard isotherm was performed at 25° C. at 10% RH intervals over a 0-90% RH range. Data analysis was undertaken in Microsoft Excel using DVS Analysis Suite v6.0.0.7. The sample was recovered after completion of the isotherm and re-analysed by XRPD.

[3] = Solid form stability on storage, by XRPD; type: physicochemical; conditions: for XRPD pattern post storage: stated as property of the form
Description: X-Ray powder diffraction patterns were collected on a Bruker AXS C2 GADDS or Bruker AXS D8 diffractometer.
X-Ray Powder Diffraction patterns were collected on a Bruker AXS C2 GADDS diffractometer using Cu Ka radiation (40 kV, 40 mA), automated XYZ stage, laser video microscope for auto-sample positioning and a HiStar 2-dimensional area detector. X-ray optics consists of a single Göbel multilayer mirror coupled with a pinhole collimator of 0.3 mm A weekly performance check is carried out using a certified standard NIST 1976 Corundum (flat plate). The beam divergence, i.e. the effective size of the X-ray beam on the sample, was approximately 4 mm. A θ-θ continuous scan mode was employed with a sample—detector distance of 20 cm which gives an effective 2θ range of 3.2°-29.7°. Typically the sample would be exposed to the X-ray beam for 120 seconds. The software used for data collection was GADDS for WNT 4.1.16 and the data were analysed and presented using Diffrac Plus EVA v11.0.0.2 or v13.0.0.2.
X-Ray Powder Diffraction patterns were collected on a Bruker D8 diffractometer using Cu Ka radiation (40 kV, 40 mA), θ-2θ goniometer, and divergence of V4 and receiving slits, a Ge monochromator and a Lynxeye detector. The instrument is performance checked using a certified Corundum standard (NIST 1976). The software used for data collection was Diffrac Plus XRD Commander v2.5.0 and the data were analysed and presented using Diffrac Plus EVA v11.0.0.2 or v13.0.0.2. Samples were run under ambient conditions as flat plate specimens using powder as received. The sample was gently packed into a cavity cut into polished, zero-background (510) silicon wafer. The sample was rotated in its own plane during analysis. The details of the data collection are: • Angular range: 2 to 42° 2θ • Step size: 0.05° 2θ • Collection time: 0.5 s/step

C=CC(=O)N1CCC[C@@H](n2nc(-c3ccc(Oc4ccccc4)cc3)c3c(N)ncnc32)C1 [Compound 1, 1-((R)-3-(4-amino-3-(4-phenoxyphenyl)-1H-pyrazolo[3,4-d]pyrimidin-1-yl)piperidin-1-yl)prop-2-en-1-one]
EC50 (OCI-Ly10; OCI-Ly10, 1 h, read-out: EC50 1 hour pulse, growth of OCI-Ly10): 50 nM | EC50 (OCI-Ly10; OCI-Ly10, read-out: EC50 continuous exposure, growth of OCI-Ly10): 10 nM

C=CC(=O)N1CCC[C@@H](n2nc(-c3ccc(Oc4ccccc4)cc3)c3c(N)ncnc32)C1 [Form A, 1-((R)-3-(4-amino-3-(4-phenoxyphenyl)-1H-pyrazolo[3,4-d]pyrimidin-1-yl)piperidin-1-yl)prop-2-en-1-one]
observed aqueous solubility ([1]; about pH 8, stated as property of the form): about 0.013 mg/mL | Solubility in aqueous solution, Conc. Found ([1]; pH 8, 25° C., 24 hours): 13 µg/mL (≈ 29.5 µM) | changes in the XRPD after GVS analysis [2]: No significant changes | mass change ([2]; 25° C.): < 0.3 % w/w | XRPD pattern post storage ([3]; 25° C. and 97% RH for at least a week): substantially the same | XRPD pattern post storage ([3]; 40° C. and 75% RH for at least a week): substantially the same | crystallinity after storage ([3]; one week storage at 25° C./97% RH): unaffected | crystallinity after storage ([3]; one week storage at 40° C./75% RH): unaffected

C=CC(=O)N1CCC[C@@H](n2nc(-c3ccc(Oc4ccccc4)cc3)c3c(N)ncnc32)C1 [Form B, 1-((R)-3-(4-amino-3-(4-phenoxyphenyl)-1H-pyrazolo[3,4-d]pyrimidin-1-yl)piperidin-1-yl)prop-2-en-1-one]
hysteresis in GVS ([2]; 0-90% RH, 25° C.): No hysteresis | changes in the XRPD after GVS analysis [2]: No significant changes | mass change ([2]; 25° C.): 2.3 % w/w

C=CC(=O)N1CCC[C@@H](n2nc(-c3ccc(Oc4ccccc4)cc3)c3c(N)ncnc32)C1 [Form E, 1-((R)-3-(4-amino-3-(4-phenoxyphenyl)-1H-pyrazolo[3,4-d]pyrimidin-1-yl)piperidin-1-yl)prop-2-en-1-one]
form conversion on standing and drying ([3]; standing at ambient temperature overnight and drying at 40° C. in vacuo for one day): converted to Compound 1, Form A
